Data: PubChem BioAssay (NCI)
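Each compound was tested at five concentrations against cells in 96-well plates for 48 hours. At the GI50, growth is halved. TGI marks complete inhibition of growth.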

What was measured:
Test in all cases: NCI-60 cell line screen, 48 h
[1] = test system: HOP-62 NSCLC
[2] = test system: CCRF-CEM leukemia
[3] = test system: HT29 colon
[4] = test system: DU-145 prostate
[5] = test system: HCT-15 colon
[6] = test system: NCI-H460 lung
[7] = test system: U251 CNS
[8] = test system: UACC-62 melanoma
[9] = test system: MOLT-4 leukemia
[10] = test system: A549 NSCLC
[11] = test system: T-47D breast
[12] = test system: SK-MEL-28 melanoma
[13] = test system: SF-268 CNS
[14] = test system: MDA-N
[15] = test system: NCI-H226 lung
[16] = test system: UACC-257 melanoma
[17] = test system: OVCAR-5 ovarian
[18] = test system: SK-MEL-2 melanoma
[19] = test system: COLO 205 colon
[20] = test system: HCC-2998 colon
[21] = test system: TK-10 renal
[22] = test system: EKVX NSCLC
[23] = test system: HS 578T breast
[24] = test system: SN12C renal
[25] = test system: MDA-MB-231 breast
[26] = test system: K-562 leukemia
[27] = test system: HCT-116 colon
[28] = test system: M14 melanoma
[29] = test system: 786-0 renal
[30] = test system: NCI-H522 lung
[31] = test system: SF-539 CNS
[32] = test system: SK-MEL-5 melanoma
[33] = test system: SK-OV-3 ovarian
[34] = test system: SF-295 CNS
[35] = test system: OVCAR-8 ovarian
[36] = test system: A498 renal
[37] = test system: RXF 393 renal
[38] = test system: IGROV1 ovarian
[39] = test system: UO-31 renal
[40] = test system: ACHN renal
[41] = test system: MALME-3M melanoma
[42] = test system: CAKI-1 renal
[43] = test system: HOP-92 NSCLC
[44] = test system: NCI/ADR-RES ovarian
[45] = test system: KM12 colon
[46] = test system: MDA-MB-435
[47] = test system: NCI-H23 lung
[48] = test system: OVCAR-4 ovarian
[49] = test system: LOX IMVI melanoma
[50] = test system: SNB-19 CNS
[51] = test system: SW-620 colon
[52] = test system: SNB-75 CNS
[53] = test system: OVCAR-3 ovarian
[54] = test system: MCF7 breast
[55] = test system: PC-3 prostate
[56] = test system: HL-60(TB) leukemia
[57] = test system: BT-549 breast
[58] = test system: SR leukemia

Cc1n[nH]c(=O)n1/N=C/c1ccncc1
TGI [1]: > 100 µM | TGI [2]: > 100 µM | TGI [3]: > 100 µM | TGI [4]: > 100 µM | TGI [5]: > 100 µM | TGI [6]: > 100 µM | TGI [7]: > 100 µM | TGI [8]: > 100 µM | TGI [9]: > 100 µM | TGI [10]: > 100 µM | TGI [11]: > 100 µM | TGI [12]: > 100 µM | TGI [13]: > 100 µM | TGI [14]: > 100 µM | TGI [15]: > 100 µM | TGI [16]: > 100 µM | TGI [17]: > 100 µM | TGI [18]: > 100 µM | TGI [19]: > 100 µM | TGI [20]: > 100 µM | TGI [21]: > 100 µM | TGI [22]: > 100 µM | TGI [23]: > 100 µM | TGI [24]: > 100 µM | TGI [25]: > 100 µM | TGI [26]: > 100 µM | TGI [27]: > 100 µM | TGI [28]: > 100 µM | TGI [29]: > 100 µM | TGI [30]: > 100 µM | TGI [31]: > 100 µM | TGI [32]: > 100 µM | TGI [33]: > 100 µM | TGI [34]: > 100 µM | TGI [35]: > 100 µM | TGI [36]: > 100 µM | TGI [37]: > 100 µM | TGI [38]: > 100 µM | TGI [39]: > 100 µM | TGI [40]: > 100 µM | TGI [41]: > 100 µM | TGI [42]: > 100 µM | TGI [43]: > 100 µM | TGI [44]: > 100 µM | TGI [45]: > 100 µM | TGI [46]: > 100 µM | TGI [47]: > 100 µM | TGI [48]: > 100 µM | TGI [49]: > 100 µM | TGI [50]: > 100 µM | TGI [51]: > 100 µM | TGI [52]: > 100 µM | TGI [53]: > 100 µM

O=C(Nc1ccc(Cl)cc1)c1cc(S(=O)(=O)Nc2nnc(-c3ccccc3)c(-c3ccccc3)n2)c(SCc2ccccc2)cc1Cl
GI50 [1]: 26.6 µM | TGI [1]: > 58.5 µM | GI50 [2]: 29.7 µM | TGI [2]: 76.8 µM | GI50 [3]: 28.3 µM | TGI [3]: > 82 µM | GI50 [4]: 37.2 µM | TGI [4]: > 62.1 µM | GI50 [5]: 32.8 µM | TGI [5]: > 64.2 µM | GI50 [6]: 25.2 µM | TGI [6]: 81.8 µM | GI50 [7]: 20.7 µM | TGI [7]: 51.3 µM | GI50 [8]: 18.2 µM | TGI [8]: 39.7 µM | GI50 [54]: 29.6 µM | TGI [54]: > 92 µM | GI50 [9]: 17.4 µM | TGI [9]: > 60.4 µM | GI50 [10]: 37.2 µM | TGI [10]: > 62.2 µM | GI50 [11]: 24.8 µM | TGI [11]: > 64.2 µM | GI50 [12]: 28.9 µM | TGI [12]: > 73.6 µM | GI50 [13]: 26.9 µM | TGI [13]: > 68.3 µM | GI50 [15]: 27.7 µM | TGI [15]: > 70.2 µM | GI50 [55]: 39.8 µM | TGI [55]: > 100 µM | GI50 [16]: 21.9 µM | TGI [16]: 61.3 µM | GI50 [17]: 36.4 µM | TGI [17]: > 58 µM | GI50 [18]: 41.3 µM | TGI [18]: > 100 µM | GI50 [19]: 23.8 µM | TGI [19]: > 60.3 µM | GI50 [56]: 23.3 µM | TGI [56]: > 68.3 µM | GI50 [20]: 17.6 µM | TGI [20]: 33.7 µM | GI50 [21]: 29.8 µM | TGI [21]: > 64.4 µM | GI50 [22]: 32.1 µM | TGI [22]: > 63.8 µM | GI50 [23]: 20.6 µM | TGI [23]: 71.1 µM | GI50 [24]: 16.4 µM | TGI [24]: 38.4 µM | GI50 [25]: 19.3 µM | TGI [25]: > 56.2 µM | GI50 [26]: 25 µM | TGI [26]: > 100 µM | GI50 [27]: 19.8 µM | TGI [27]: 46.5 µM | GI50 [28]: 21.2 µM | TGI [28]: 51.6 µM | GI50 [29]: 23.6 µM | TGI [29]: > 57.8 µM | GI50 [57]: 34.9 µM | TGI [57]: > 70.5 µM | GI50 [58]: 28.9 µM | TGI [58]: > 57.3 µM | GI50 [30]: 43.9 µM | TGI [30]: > 71.2 µM | GI50 [31]: 35 µM | TGI [31]: > 100 µM | GI50 [32]: 18.1 µM | TGI [32]: 39.4 µM | GI50 [33]: > 44.2 µM | TGI [33]: > 60.7 µM | GI50 [34]: 19 µM | TGI [34]: 41.5 µM | GI50 [35]: 31.8 µM | TGI [35]: > 71 µM | GI50 [36]: 20.4 µM | TGI [36]: 77.9 µM | GI50 [37]: 0.896 µM | TGI [37]: > 57.7 µM | GI50 [38]: 33.6 µM | TGI [38]: > 95.4 µM | GI50 [39]: 35.9 µM | TGI [39]: > 100 µM | GI50 [40]: 27.7 µM | TGI [40]: > 61.5 µM | GI50 [41]: 34.2 µM | TGI [41]: > 100 µM | GI50 [42]: 24.8 µM | TGI [42]: > 59 µM | GI50 [43]: 25.3 µM | TGI [43]: 66.8 µM | GI50 [44]: > 50.2 µM | TGI [44]: > 80.2 µM | GI50 [45]: 21.9 µM | TGI [45]: > 62 µM | GI50 [46]: 21.2 µM | TGI [46]: 61.5 µM | GI50 [47]: 24.6 µM | TGI [47]: 53.7 µM | GI50 [48]: 49.8 µM | TGI [48]: > 85.4 µM | GI50 [49]: 17.3 µM | TGI [49]: 35.1 µM | GI50 [50]: 37.9 µM | TGI [50]: > 67 µM | GI50 [51]: 38.1 µM | TGI [51]: > 100 µM | GI50 [53]: 17.1 µM | TGI [53]: 41.2 µM

COC(=O)C1ON2C(C1C(=O)OC)C(C)(C)N(O)C2(C)C (stereo unspecified)
TGI [3]: > 10 µM | TGI [4]: > 10 µM | TGI [5]: > 10 µM | TGI [7]: > 10 µM | TGI [10]: > 10 µM | TGI [12]: > 10 µM | TGI [13]: > 10 µM | TGI [14]: > 10 µM | TGI [15]: > 10 µM | TGI [55]: > 10 µM | TGI [17]: > 10 µM | TGI [19]: > 10 µM | TGI [21]: > 10 µM | TGI [22]: > 10 µM | TGI [24]: > 10 µM | TGI [25]: > 10 µM | TGI [27]: > 10 µM | TGI [28]: > 10 µM | TGI [31]: > 10 µM | TGI [32]: > 10 µM | TGI [34]: > 10 µM | TGI [35]: > 10 µM | TGI [37]: > 10 µM | TGI [38]: > 10 µM | TGI [40]: > 10 µM | TGI [42]: > 10 µM | TGI [43]: > 10 µM | TGI [44]: > 10 µM | TGI [45]: > 10 µM | TGI [46]: > 10 µM | TGI [47]: > 10 µM | TGI [48]: > 10 µM | TGI [50]: > 10 µM | TGI [51]: > 10 µM | TGI [52]: > 10 µM | TGI [53]: > 10 µM
